Assay results published in patent US20090191253A2 (Creabilis Therapeutics S.P.A., priority 2005, published 2009).

Tests used:
[1] = molecular target: T1, FLT1 (Homo sapiens, UniProt P17948); test: Kinase inhibition profiling FLT1 (ELISA); format: biochemical; also: ATP 20 µM
T1 construct: Cytoplasmic domain of human FLT1 [781-1338 amino; made in house; host or cells: baculovirus expression system
Protocol: (§1) In particular, the target kinases were Tyrosine kinases and Serine/Threonine kinases.
(§2) Each test compound was weighed and dissolved in DMSO to make 1 mM stock solution. The stock solution was diluted with DMSO to achieve 20 μM. The compound solution was diluted with the assay buffer to achieve 0.8 μM.

[2] = molecular target: T2, EGFR (Homo sapiens, UniProt P00533); test: Kinase inhibition profiling EGFR (ELISA); format: biochemical; also: ATP 5 µM
T2 construct: Cytoplasmic domain of human EGFR [669-1210 amino; made in house; host or cells: baculovirus expression system
Protocol: as §2

[3] = molecular target: T3, p38α (Homo sapiens, UniProt Q16539); test: Kinase inhibition profiling p38α (IMAP); format: biochemical
T3 construct: GST (N); made in house; host or cells: E. coli
Protocol: as §2

[4] = molecular target: T4, HMGB1 (Homo sapiens, UniProt P09429); test: Protein binding experiments by circular dichroism (CD); conditions: assuming 1:1 stoichiometry binding
T4 construct: host or cells: bacteria (inferred from the mention of bacterial contaminants)
From the text: All CD spectra were collected on a Jasco J710 spectropolarimeter equipped with a NesLab RTE111 thermal controller unity, using a quartz cylindrical cuvette with a 1 cm path length (Jasco). A scan speed of 20 nm/min, a bandwidth of o 1 nm, and a resolution of 1 nm was always used.
The spectra are heavily disturbed more than likely due to DMF.

[5] = molecular target: T5, Erk2 (Homo sapiens, UniProt P28482); test: Kinase inhibition profiling Erk2 (IMAP); format: biochemical
T5 construct: Human Erk2 containing 360 amino acids was expressed; His (N); made in house; host or cells: E. coli
Protocol: as §2

[6] = tested on: bovine aorta smooth muscle cells (BASMC); test: Chemotaxis assay, fMLP-induced migration (modified Boyden chambers); format: cell-based; conditions: K-252a 3, 10, 30, 100 nM; fMLP 0.1 μM; overnight migration
Protocol: Chemotaxis assays were performed using a well known and validated protocol (1). Modified Boyden chambers were used with filters having 5-8 μm pore size and treated with collagen I (100 μg/ml in 0.5 M acetic acid) and fibronectin (10 μg/ml, Roche). BASMC (bovine aorta smooth muscle cells) were cultured in serum-free DMEM and a sample of 20,000-40,000 cells was added to the upper well of a Boyden chamber. […] Overnight cell migration was allowed at 37+/−0.5° C., then cells were scraped off and filters were fixed in methanol and stained in a solution of 10% crystal violet in 20% methanol. All experiments were performed at least twice in triplicate. […] Random cell migration, i.e. migration in the absence of chemoattractant, was given the arbitrary value of 100%. Statistical analysis was performed using Student's t test for pairwise comparisons of treatment, or an ANOVA model for the evaluation of treatments with increasing concentrations of a reagent.

[7] = molecular target: T6, PDGFRα (Homo sapiens, UniProt P16234); test: Kinase inhibition profiling PDGFRα (ELISA); format: biochemical
T6 construct: Cytoplasmic domain of human PDGFRα [550-1089; made in house; host or cells: baculovirus expression system
Protocol: as §2

[8] = molecular target: T7, FGR (Homo sapiens, UniProt P09769); test: Kinase inhibition profiling FGR (ELISA); format: biochemical; also: ATP 5 µM
T7 construct: His (N, cleaved yes); made in house; host or cells: baculovirus expression system
Protocol: as §1, §2

[9] = molecular target: T8, AXL (Homo sapiens, UniProt P30530); test: Kinase inhibition profiling AXL (ELISA); format: biochemical
T8 construct: made in house; host or cells: baculovirus expression system
Protocol: as §1, §2

[10] = molecular target: T9, IGF1R (Homo sapiens, UniProt P08069); test: Kinase inhibition profiling IGF1R (ELISA); format: biochemical
T9 construct: Cytoplasmic domain of human IGF1R [959-1367 amino; made in house; host or cells: baculovirus expression system
Protocol: as §2

[11] = tested on: p38β; test: Kinase inhibition profiling p38β (IMAP); format: biochemical, human; conditions: K-252a 200 nM, ATP 10 μM
Protocol: as §2

[12] = molecular target: T10, YES (Homo sapiens, UniProt P07947); test: Kinase inhibition profiling YES (ELISA); format: biochemical
T10 construct: made in house; host or cells: baculovirus expression system
Protocol: as §1, §2

[13] = molecular target: T11, HCK (Homo sapiens, UniProt P08631); test: Kinase inhibition profiling HCK (ELISA); format: biochemical; also: ATP 20 µM
T11 construct: made in house; host or cells: baculovirus expression system
Protocol: as §1, §2

[14] = molecular target: T12, PDGFRβ (Homo sapiens, UniProt P09619); test: Kinase inhibition profiling PDGFRβ (ELISA); format: biochemical
T12 construct: Cytoplasmic domain of human PDGFRβ [557-1106 amino; made in house; host or cells: baculovirus expression system
Protocol: as §2

[15] = molecular target: T13, HER4 (Homo sapiens, UniProt Q15303); test: Kinase inhibition profiling HER4 (ELISA); format: biochemical
T13 construct: Cytoplasmic domain of human HER4 [676-1308 amino; made in house; host or cells: baculovirus expression system
Protocol: as §2

[16] = molecular target: T14, LYNa (Homo sapiens, UniProt P07948); test: Kinase inhibition profiling LYNa (ELISA); format: biochemical
T14 construct: made in house; host or cells: baculovirus expression system
Protocol: as §2

[17] = molecular target: T15, MAP2K7 (Homo sapiens, UniProt O14733, S271E/S277E/T275E); test: Kinase inhibition profiling MAP2K7 (AlphaScreen, cascade); format: biochemical
T15 construct: T275E, S277E] derived from wild type [419 amino acids; GST (N); made in house; host or cells: E. coli
From the text: AlphaScreen Assay [drawing 4]

[18] = molecular target: T16, PKCα (Homo sapiens, UniProt P17252); test: Kinase inhibition profiling PKCα (IMAP); format: biochemical
T16 construct: made in house; host or cells: baculovirus expression system
Protocol: as §2

[19] = molecular target: T17, MAPKAPK2 (Homo sapiens, UniProt P49137); test: Kinase inhibition profiling MAPKAPK2 (IMAP); format: biochemical
T17 construct: His (N); made in house; host or cells: baculovirus expression system
Protocol: as §2

[20] = molecular target: T18, FLT3 (Homo sapiens, UniProt P36888); test: Kinase inhibition profiling FLT3 (ELISA); format: biochemical
T18 construct: made in house; host or cells: baculovirus expression system
Protocol: as §2

[21] = molecular target: T19, FGFR2 (Homo sapiens, UniProt P21802); test: Kinase inhibition profiling FGFR2 (ELISA); format: biochemical; also: ATP 20 µM
T19 construct: Cytoplasmic domain of human FGFR2 [399-821 amino; made in house; host or cells: baculovirus expression system
Protocol: as §2

[22] = molecular target: T20, BLK (Homo sapiens, UniProt P51451); test: Kinase inhibition profiling BLK (ELISA); format: biochemical
T20 construct: made in house; host or cells: baculovirus expression system
Protocol: as §2

[23] = molecular target: T21, EphB4 (Homo sapiens, UniProt P54760); test: Kinase inhibition profiling EphB4 (ELISA); format: biochemical
T21 construct: Cytoplasmic domain of human EphB4 [577-987 amino; made in house; host or cells: baculovirus expression system
Protocol: as §2

[24] = molecular target: T22, JAK2 (Homo sapiens, UniProt O60674); test: Kinase inhibition profiling JAK2 (ELISA); format: biochemical
T22 construct: Kinase domain (KD) of human JAK2 [826-1132 amino; made in house; host or cells: baculovirus expression system
Protocol: as §2

[25] = molecular target: T23, BRK (Homo sapiens, UniProt Q13882); test: Kinase inhibition profiling BRK (ELISA); format: biochemical
T23 construct: made in house; host or cells: baculovirus expression system
Protocol: as §1, §2

T1 sequence (P17948 781-1338): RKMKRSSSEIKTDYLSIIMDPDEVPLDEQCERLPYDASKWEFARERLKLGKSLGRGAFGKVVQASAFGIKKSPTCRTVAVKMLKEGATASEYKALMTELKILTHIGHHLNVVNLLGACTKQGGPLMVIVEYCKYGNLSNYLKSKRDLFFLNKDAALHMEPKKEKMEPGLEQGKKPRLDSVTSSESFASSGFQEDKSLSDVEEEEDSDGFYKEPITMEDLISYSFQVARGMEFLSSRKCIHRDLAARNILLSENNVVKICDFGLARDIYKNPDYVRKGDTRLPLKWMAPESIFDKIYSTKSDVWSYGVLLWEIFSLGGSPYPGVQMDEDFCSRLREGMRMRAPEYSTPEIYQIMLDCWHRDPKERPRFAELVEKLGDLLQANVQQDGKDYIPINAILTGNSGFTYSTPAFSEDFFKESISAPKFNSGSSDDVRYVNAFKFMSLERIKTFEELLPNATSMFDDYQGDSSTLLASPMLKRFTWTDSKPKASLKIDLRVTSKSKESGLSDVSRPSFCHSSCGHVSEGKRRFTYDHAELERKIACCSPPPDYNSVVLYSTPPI
T9 sequence (P08069 959-1367): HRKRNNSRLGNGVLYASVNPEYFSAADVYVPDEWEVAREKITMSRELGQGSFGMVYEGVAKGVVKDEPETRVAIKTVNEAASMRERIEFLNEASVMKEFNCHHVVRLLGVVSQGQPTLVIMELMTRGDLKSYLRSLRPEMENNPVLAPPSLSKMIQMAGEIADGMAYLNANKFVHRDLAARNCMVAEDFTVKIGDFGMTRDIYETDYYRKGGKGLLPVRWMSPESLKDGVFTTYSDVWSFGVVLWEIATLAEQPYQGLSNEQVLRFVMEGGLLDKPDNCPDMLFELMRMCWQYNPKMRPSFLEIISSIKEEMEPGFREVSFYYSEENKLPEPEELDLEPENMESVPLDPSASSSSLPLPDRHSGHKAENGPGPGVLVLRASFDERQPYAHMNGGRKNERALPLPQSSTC
T14 sequence (P07948 whole entry): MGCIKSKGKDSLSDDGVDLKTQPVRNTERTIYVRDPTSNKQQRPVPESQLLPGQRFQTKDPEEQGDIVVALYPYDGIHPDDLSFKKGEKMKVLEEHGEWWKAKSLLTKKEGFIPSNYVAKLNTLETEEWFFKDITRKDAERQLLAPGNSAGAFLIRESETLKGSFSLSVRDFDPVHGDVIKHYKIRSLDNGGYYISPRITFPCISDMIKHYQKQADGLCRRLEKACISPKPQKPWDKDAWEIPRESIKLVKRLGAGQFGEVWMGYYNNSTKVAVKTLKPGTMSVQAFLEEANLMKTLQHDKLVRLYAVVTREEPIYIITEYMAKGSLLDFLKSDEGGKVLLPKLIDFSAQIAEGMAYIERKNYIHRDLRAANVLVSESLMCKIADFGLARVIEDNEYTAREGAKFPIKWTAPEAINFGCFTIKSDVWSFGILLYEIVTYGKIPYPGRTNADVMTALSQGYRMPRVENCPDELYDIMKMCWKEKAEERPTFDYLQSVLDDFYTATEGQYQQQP
T17 sequence (P49137 whole entry): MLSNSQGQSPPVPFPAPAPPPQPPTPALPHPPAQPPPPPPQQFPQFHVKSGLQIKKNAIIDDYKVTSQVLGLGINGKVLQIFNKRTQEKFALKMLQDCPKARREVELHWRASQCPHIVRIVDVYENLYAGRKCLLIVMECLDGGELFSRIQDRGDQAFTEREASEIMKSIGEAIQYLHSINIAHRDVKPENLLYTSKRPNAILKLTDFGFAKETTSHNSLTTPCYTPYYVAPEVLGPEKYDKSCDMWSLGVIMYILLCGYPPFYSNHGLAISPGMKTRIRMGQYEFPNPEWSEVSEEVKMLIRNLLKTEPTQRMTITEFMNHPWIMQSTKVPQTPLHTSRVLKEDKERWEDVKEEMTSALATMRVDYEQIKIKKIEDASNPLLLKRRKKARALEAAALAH
T19 sequence (P21802 399-821): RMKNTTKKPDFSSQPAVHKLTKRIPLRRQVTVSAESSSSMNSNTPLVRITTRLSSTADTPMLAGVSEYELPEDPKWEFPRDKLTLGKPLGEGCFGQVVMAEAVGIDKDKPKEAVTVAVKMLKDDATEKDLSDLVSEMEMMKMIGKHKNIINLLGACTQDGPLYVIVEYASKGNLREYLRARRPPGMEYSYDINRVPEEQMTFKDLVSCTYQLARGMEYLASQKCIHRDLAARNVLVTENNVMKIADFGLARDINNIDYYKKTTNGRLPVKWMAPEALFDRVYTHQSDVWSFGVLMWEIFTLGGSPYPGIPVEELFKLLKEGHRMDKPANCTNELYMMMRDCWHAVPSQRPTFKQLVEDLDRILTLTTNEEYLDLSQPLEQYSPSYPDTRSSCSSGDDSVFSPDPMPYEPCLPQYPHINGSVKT
T22 sequence (O60674 826-1132): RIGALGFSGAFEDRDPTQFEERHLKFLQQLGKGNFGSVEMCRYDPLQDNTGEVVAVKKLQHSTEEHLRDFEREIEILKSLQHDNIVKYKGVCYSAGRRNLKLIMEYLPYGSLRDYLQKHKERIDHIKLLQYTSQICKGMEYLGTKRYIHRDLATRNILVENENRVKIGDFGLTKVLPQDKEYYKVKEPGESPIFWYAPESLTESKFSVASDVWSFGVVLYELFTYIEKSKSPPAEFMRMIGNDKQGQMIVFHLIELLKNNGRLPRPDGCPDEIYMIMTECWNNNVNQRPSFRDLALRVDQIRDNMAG
T10 sequence (P07947 whole entry): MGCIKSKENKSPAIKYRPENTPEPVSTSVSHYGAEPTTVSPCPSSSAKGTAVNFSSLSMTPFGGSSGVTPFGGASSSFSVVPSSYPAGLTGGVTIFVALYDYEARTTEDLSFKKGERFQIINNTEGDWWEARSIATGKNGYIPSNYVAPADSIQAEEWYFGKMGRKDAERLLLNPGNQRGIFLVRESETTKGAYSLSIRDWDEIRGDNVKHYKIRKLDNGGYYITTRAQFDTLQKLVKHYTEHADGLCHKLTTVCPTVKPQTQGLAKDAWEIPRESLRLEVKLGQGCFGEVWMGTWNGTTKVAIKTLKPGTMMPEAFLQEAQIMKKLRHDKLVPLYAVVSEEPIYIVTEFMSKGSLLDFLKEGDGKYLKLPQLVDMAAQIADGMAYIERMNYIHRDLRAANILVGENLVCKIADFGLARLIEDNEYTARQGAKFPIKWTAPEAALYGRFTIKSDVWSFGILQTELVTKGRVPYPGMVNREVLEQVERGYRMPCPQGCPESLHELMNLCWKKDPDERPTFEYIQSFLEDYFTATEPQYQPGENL
T11 sequence (P08631 73-526): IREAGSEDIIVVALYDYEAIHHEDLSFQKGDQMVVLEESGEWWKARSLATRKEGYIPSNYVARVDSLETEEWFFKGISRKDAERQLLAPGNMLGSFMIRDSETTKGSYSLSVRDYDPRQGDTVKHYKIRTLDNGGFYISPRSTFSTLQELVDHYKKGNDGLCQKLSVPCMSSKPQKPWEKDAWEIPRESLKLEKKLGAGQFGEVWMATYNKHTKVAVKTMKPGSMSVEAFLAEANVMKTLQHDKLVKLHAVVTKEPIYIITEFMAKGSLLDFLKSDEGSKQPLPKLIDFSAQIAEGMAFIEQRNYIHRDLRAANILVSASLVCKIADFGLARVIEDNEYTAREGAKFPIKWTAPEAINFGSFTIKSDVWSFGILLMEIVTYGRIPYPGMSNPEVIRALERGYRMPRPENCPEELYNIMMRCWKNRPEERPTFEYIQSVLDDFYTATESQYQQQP
T7 sequence (P09769 whole entry): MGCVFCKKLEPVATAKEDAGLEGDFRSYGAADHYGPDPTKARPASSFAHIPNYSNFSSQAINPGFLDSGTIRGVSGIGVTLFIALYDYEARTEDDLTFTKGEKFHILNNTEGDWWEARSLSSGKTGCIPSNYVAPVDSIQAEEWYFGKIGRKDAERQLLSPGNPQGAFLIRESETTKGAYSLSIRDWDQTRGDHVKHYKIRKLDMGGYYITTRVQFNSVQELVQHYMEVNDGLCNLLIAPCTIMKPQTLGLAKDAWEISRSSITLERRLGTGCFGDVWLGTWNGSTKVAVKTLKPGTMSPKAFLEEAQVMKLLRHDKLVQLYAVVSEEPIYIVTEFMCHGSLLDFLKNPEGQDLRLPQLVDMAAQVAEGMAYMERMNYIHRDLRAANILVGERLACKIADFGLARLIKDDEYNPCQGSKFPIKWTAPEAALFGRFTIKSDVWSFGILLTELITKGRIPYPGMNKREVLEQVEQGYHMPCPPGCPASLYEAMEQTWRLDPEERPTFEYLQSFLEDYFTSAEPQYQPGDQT

COC(=O)[C@]1(O)CC2O[C@@]1(C)n1c3ccccc3c3c4c(c5c6ccccc6n2c5c31)C(=O)NC4 [K-252a]
inhibition at 0.2 µM [1]: 73.9%
inhibition at 0.2 µM [2]: 16.4%
inhibition at 0.2 µM [3]: -1.5%
Kd [4]: ~2000 nM
inhibition at 0.2 µM [5]: 14.2%
cell migration induced by fMLP [6]: does not interfere with cell migration induced by fMLP, whatever the concentration tested
inhibition at 0.2 µM [7]: 96.1%
inhibition at 0.2 µM [8]: 85.6%
inhibition at 0.2 µM [9]: 51.5%
inhibition at 0.2 µM [10]: 40.6%
% Inhibition [11]: −0.2%
inhibition at 0.2 µM [12]: 65.1%
inhibition at 0.2 µM [13]: 68.2%
inhibition at 0.2 µM [14]: 98.1%
inhibition at 0.2 µM [15]: 39.4%
inhibition at 0.2 µM [16]: 58.9%
inhibition at 0.2 µM [17]: 68.2%
inhibition at 0.2 µM [18]: 64.4%
inhibition at 0.2 µM [19]: 44.3%
inhibition at 0.2 µM [20]: 95.8%
inhibition at 0.2 µM [21]: 67.2%
inhibition at 0.2 µM [22]: 83.5%
inhibition at 0.2 µM [23]: 13.3%
inhibition at 0.2 µM [24]: 99.5%
inhibition at 0.2 µM [25]: 35.8%
